Numbers after ± are expanded uncertainties.
What was measured:
[1] = 303.15 K, 101.33 kPa, Liquid; for viscosity: Capillary tube (Ostwald / Ubbelohde) method; for mass density: Vibrating tube method
[2] = xn = mol fraction of the nth substance listed; details: 303.15 K, 101.33 kPa, Liquid; for viscosity: Capillary tube (Ostwald / Ubbelohde) method; for mass density: Vibrating tube method

ClCCl [dichloromethane]
[1]
Details	mass density [kg/m3]	viscosity [mPa·s]
–	1307.6 ± 0.7	0.3929 ± 0.0035

ClCCl [dichloromethane] + ClC(Cl)Cl
[2]
Details	mass density [kg/m3]	viscosity [mPa·s]
x1 = 0.0633	1462.3 ± 0.8	0.504 ± 0.0043
x1 = 0.1191	1454.8 ± 0.8	0.4976 ± 0.0043
x1 = 0.1924	1444.7 ± 0.7	0.4892 ± 0.0042
x1 = 0.3101	1427.8 ± 0.7	0.4741 ± 0.0041
x1 = 0.3607	1420.3 ± 0.7	0.4686 ± 0.0041
x1 = 0.4299	1409.7 ± 0.7	0.4602 ± 0.004
x1 = 0.5221	1395.1 ± 0.7	0.4501 ± 0.0039
x1 = 0.6464	1374.3 ± 0.7	0.4352 ± 0.0038
x1 = 0.6833	1367.8 ± 0.7	0.4301 ± 0.0038
x1 = 0.74	1357.8 ± 0.7	0.4236 ± 0.0037
x1 = 0.7979	1347.1 ± 0.7	0.4163 ± 0.0037
x1 = 0.8681	1333.9 ± 0.7	0.4083 ± 0.0036
x1 = 0.9034	1327 ± 0.7	0.404 ± 0.0036
x1 = 0.9358	1320.6 ± 0.7	0.4005 ± 0.0036

ClC(Cl)(Cl)Cl [tetrachloromethane]
[1]
Details	mass density [kg/m3]	viscosity [mPa·s]
–	1575 ± 0.8	0.8403 ± 0.0068

ClC(Cl)(Cl)Cl [tetrachloromethane] + ClC(Cl)Cl
[2]
Details	mass density [kg/m3]	viscosity [mPa·s]
x1 = 0.0591	1477.2 ± 0.8	0.5216 ± 0.0044
x1 = 0.075	1479 ± 0.8	0.5248 ± 0.0045
x1 = 0.1297	1485.1 ± 0.8	0.5343 ± 0.0045
x1 = 0.2236	1495.3 ± 0.8	0.5538 ± 0.0047
x1 = 0.2777	1501.2 ± 0.8	0.5658 ± 0.0048
x1 = 0.3416	1508.1 ± 0.8	0.5811 ± 0.0049
x1 = 0.434	1517.9 ± 0.8	0.6041 ± 0.005
x1 = 0.4886	1523.6 ± 0.8	0.6201 ± 0.0052
x1 = 0.5736	1532.5 ± 0.8	0.6486 ± 0.0054
x1 = 0.6646	1541.8 ± 0.8	0.6807 ± 0.0056
x1 = 0.7747	1552.9 ± 0.8	0.7256 ± 0.0059
x1 = 0.8186	1557.3 ± 0.8	0.7458 ± 0.0061
x1 = 0.8904	1564.4 ± 0.8	0.7804 ± 0.0063
x1 = 0.9305	1568.3 ± 0.8	0.8017 ± 0.0065

ClC(Cl)(Cl)Cl [tetrachloromethane] + ClCCl
[2]
Details	mass density [kg/m3]	viscosity [mPa·s]
x1 = 0.0375	1321.5 ± 0.7	0.4008 ± 0.0037
x1 = 0.0622	1330.4 ± 0.7	0.4061 ± 0.0037
x1 = 0.0791	1336.4 ± 0.7	0.4097 ± 0.0038
x1 = 0.0889	1339.9 ± 0.7	0.412 ± 0.0038
x1 = 0.1254	1352.4 ± 0.7	0.421 ± 0.0038
x1 = 0.2047	1378.4 ± 0.7	0.441 ± 0.004
x1 = 0.2305	1386.5 ± 0.7	0.4479 ± 0.004
x1 = 0.297	1406.7 ± 0.7	0.4669 ± 0.0042
x1 = 0.3695	1427.7 ± 0.7	0.4897 ± 0.0043
x1 = 0.4985	1462.5 ± 0.8	0.5369 ± 0.0047
x1 = 0.4986	1462.5 ± 0.8	0.5374 ± 0.0047
x1 = 0.4997	1462.8 ± 0.8	0.5375 ± 0.0047
x1 = 0.5631	1478.9 ± 0.8	0.564 ± 0.0049
x1 = 0.609	1490.1 ± 0.8	0.5853 ± 0.005
x1 = 0.6845	1508 ± 0.8	0.6223 ± 0.0053
x1 = 0.8006	1533.9 ± 0.8	0.6894 ± 0.0058
x1 = 0.8032	1534.5 ± 0.8	0.6915 ± 0.0058
x1 = 0.8652	1547.7 ± 0.8	0.7331 ± 0.0061
x1 = 0.9279	1560.7 ± 0.8	0.7792 ± 0.0064
x1 = 0.9677	1568.6 ± 0.8	0.8116 ± 0.0066

ClC(Cl)Cl [trichloromethane]
[1]
Details	mass density [kg/m3]	viscosity [mPa·s]
–	1470.5 ± 0.8	0.5118 ± 0.0044

— the NIST ThermoML archive (doi:10.1021/je020067x)
